Patent US6150393A (priority 1999, dated 2000)

Tests used:
[1] = Bar catalepsy test in rats (extrapyramidal side effect analysis); type: in vivo, rat (male Sprague-Dawley)
[2] = tested on: 5HT2 receptors; experiment: DOI locomotor activity test in rats (DOI inhibition study), intraperitoneal test compound; type: in vivo, rat (male Sprague-Dawley); settings: i.p. 30 min before DOI (0.3 mg/kg s.c.)
Procedure: (§1) FIG. 3 provides a graphic summary of dose-response results from in vivo analysis of compound 116082 in a 1-(2,5-dimethoxy-4-iodophenyl)-2-aminopropane ("DOI") inhibition study (fine movement; ambulation; and animal rearing outcome measures). 116082 was administered 30 min prior to DOI. Animals were placed in locomotor activity cages 10 min after DOI administration and activity was measured for 10 min. Results are presented as total activity counts over the 10 min of exposure to the locomotor activity apparatus.
as §1, with “FIG. 4” for “FIG. 3”, “compound 116081” for “compound 116082”, “a DOI” for “a 1-(2,5-dimethoxy-4-iodophenyl)-2-aminopropane ("DOI")”, “measures). 116081” for “measures). 116082”
Assessment of 5-HT2 receptor antagonism in vivo was made by using the DOI locomotor activity test in rats as described by Krebs-Thomson (Psychopharmacology, 140:69-74, 1998).
Motor function was assessed by using automated locomotor activity cages. The rats were placed in a standard rodent cage surrounded by photocell beams, which allow for automated recording of motor activity. […]

[3] = tested on: 5HT2 receptors; experiment: DOI inhibition study in rats, oral administration of test compound (oral availability); type: in vivo, rat
Procedure: (§2) FIG. 6 provides a graphic summary of the effects of oral administration of 116082 and 116081 in a DOI inhibition study in rats. Values represent the mean±SEMs (n=6/group). #P<0.05 vs. vehicle/vehicle, *P<0.05 vs. vehicle/DOI, Student t-test.
(§3) Based upon the in vivo data developed, oral bioavailability of compounds […] was considered. The compounds were administered by oral gavage at a dose of 50 mg/kg, 30 min prior to DOI in rats (see Example 11A, supra). Animals were placed in the locomotor activity cages 10 min after DOI administration and activity was measured for 10 min. Results, presented in FIG. 6, provide total activity counts over the 10 min of exposure to the locomotor activity apparatus.

[4] = as above; type: in vivo, rat; settings: in vivo; rat; 50 mg/kg oral vs 10 mg/kg i.p., inferred from DOI test
Procedure: as §2, §3

[5] = tested on: human 5HT2A receptor compared with human 5HT2C receptor; experiment: Selectivity for 5HT2A over 5HT2C receptor (as measured by IC50 values); type: binding
[6] = tested on: human mutated 5HT2A receptor, AP-3; experiment: Receptor-mediated inositol phosphate (IP3) accumulation, AP-3; type: cell-based
Procedure: On day one, 1×10^7 293 cells per 150 mm plate were plated out. On day two, two reaction tubes were prepared (the proportions to follow for each tube are per plate): tube A was prepared by mixing 20 μg DNA (e.g., pCMV vector; pCMV vector AP-1 cDNA, etc.) in 1.2 ml serum free DMEM (Irvine Scientific, Irvine, Calif.); tube B was prepared by mixing 120 μl lipofectamine (Gibco BRL) in 1.2 ml serum free DMEM. Tubes A and B were then admixed by inversions (several times), followed by incubation at room temperature for 30-45 min. The admixture is referred to as the "transfection mixture". Plated 293 cells were washed with 1×PBS, followed by addition of 10 ml serum free DMEM. 2.4 ml of the transfection mixture was then added to the cells, followed by incubation for 4 hrs at 37° C./5% CO2. On day 3, cells were trypsinized and counted, followed by plating of 1×10^6 cells/well (poly D-lysine treated 12-well plates). Cells were permitted to adhere to the wells, followed by one wash with 1×PBS. Thereafter, 0.5 μCi ^3 H-inositol in 1 ml inositol-free DMEM was added per well. Protocol B.
On day 4, the cells were washed with 0.5 ml PBS and then 0.45 ml of assay medium was added containing inositol-free/serum free media, 10 μM pargyline, 10 mM lithium chloride, or 0.4 ml of assay medium and 50 ul of 10× ketanserin (ket) to a final concentration of 10 μM. The cells were then incubated for 30 minutes at 37° C. Then the cells were washed with 0.5 ml PBS and 200 ul of fresh/ice cold stop solution (1M KOH; 18 mM Na-borate; 3.8 mM EDTA) was added/well. The solution was kept on ice for 5-10 minutes or until the cells were lysed and then neutralized by 200 μl of fresh/ice cold neutralization sol. (7.5% HCL). The lysate was then transferred into 1.5 ml microcentrifuge tubes and 1 ml of chloroform/methanol (1:2) was added/tube. The solution was vortexed for 15 seconds and the upper phase was applied to a Biorad AG1-X8 anion exchange resin (100-200 mesh). The resin was washed with water and 0.9 ml of the upper phase was loaded onto the column. The column was washed with 10 mls of 5 mM myo-inositol and 10 ml of 5 mM Na-borate/60 mM Na-formate. The inositol trisphosphates were eluted into scintillation vials containing 10 ml of scintillation cocktail with 2 ml of 0.1 M formic acid/1 M ammonium formate. The columns were regenerated by washing with 10 ml of 0.1 M formic acid/3M ammonium formate and rinsed twice with dd H2 O and stored at room temperature in water.
Candidate compound identified in the assays of Examples 9a-9c were then evaluated for inositol phosphate accumulation, following the protocol of Example 5 ([…] expressing human mutated 5HT2A receptor, AP-3), modified as follows: tube A was prepared by mixing 16 μg DNA (e.g., pCMV vector; pCMV vector AP-1 cDNA, etc.) in 1.0 ml serum free DMEM (Irvine Scientific, Irvine, Calif.); tube B was prepared by mixing 60 μl lipofectamine (Gibco BRL) in 1.0 ml serum free DMEM. Tubes A and B were then admixed by inversions (several times), followed by incubation at room temperature for 30 min. The admixture is referred to as the "transfection mixture". Plated 293 cells were washed with 10 ml Serum Free DMEM, followed by addition of 11 ml Serum Free DMEM. 2.0 ml of the transfection mixture was then added to the cells, followed by incubation for 5 hrs at 37° C./5% CO2. On day 3, cells were trypsinized and counted, followed by plating of 1×10^6 cells/well (12-well plates). Cells were permitted to adhere to the wells for 8 hrs, followed by one wash with 1×PBS. Thereafter, 0.5 μCi ^3 H-inositol in 1 ml inositol-free DMEM was added per well.
On day 4, the cells were washed with 1.5 ml PBS and then 0.9 ml of assay medium was added containing inositol-free/serum free media, 10 μM pargyline, 10 mM lithium chloride, for 5 min in 37° C./5% CO2 followed by 100 μl addition of candidate compound diluted in the same material. The cells were then incubated for 120 minutes at 37° C. […]

[7] = tested on: 5HT2 receptors; settings: peripheral administration, 0.3 mg/kg; cited from earlier work
[8] = rodents; cited from earlier work
[9] = type: in vivo, rat (male Sprague-Dawley); settings: i.p.; total activity counts over 120 min after MK-801
Procedure: FIG. 7 provides a graphic summary of the reversal of MK-801-induced hyperactivity using 116081 (7A) and clozapine (7B). […] 116081 produced a significant reversal of the effect of MK-801 at a dose of 25 μmol/kg (10 mg/kg). Results are presented as total activity counts over the 120 min of exposure to the locomotor activity apparatus after administration of MK-801. Data (mean±SEM) were analyzed by ANOVA followed by Dunnett's test (n=6-8/group).
Because part of the symptomatology of schizophrenia may be related to altered glutamate transmission at the NMDA receptor, the reversal of MK-801-induced hyperlocomotor activity in rodents has been used routinely as an animal model for detecting potential antipsychotic activity (O'Neill et al., Pharmacology Biochem. Behav., 63: 237-243, 1999). Thus, this test was used to determine potential antipsychotic properties of 116081 in vivo.
Motor activity was assessed using automated locomotor activity cages as described above (Example 11(A), supra.). Male Sprague-Dawley rats (250-350 g body weight) were administered test compounds (i.p.) and placed in the locomotor activity cages for 30 min of habituation. Following habituation,animals were administered MK-801 (0.5 μmol/kg=0.17 mg/kg, s.c.) and then immediately placed back into the locomotor activity cages, and activity was measured for 120 min. A reversal of MK-801-induced motor activity (as shown by a significant […] of ambulation) in rats is considered to be predictive of the ability of the test compound to reverse psychotic symptoms.

For `Cn1cc(Br)c(-c2cccc(NC(=O)Nc3ccc(F)cc3)c2)n1` [Compound 116082, {[3-(4-bromo-1-methylpyrazol-3-yl)phenyl]amino}-N-(4-fluorophenyl)carboxamide], the extra-pyramidal side effects ([1]; at a dose 8 times greater than the dose required to block 5HT2A receptors in vivo) was “does not induce extra-pyramidal side effects in rats”, the induction of catalepsy ([1]; i.p., 10 to 80 mg/kg) was “does not induce catalepsy in rats” and the “time spent on the bar” value ([1]; i.p., 10 to 80 mg/kg, 60 min before test) was “did not induce a dose-dependent increase in time spent on the bar”. For the same compound, the selectivity ratio ([1]; rat, in vivo, ip, bar test versus DOI test, rats, read-out: dose without extra-pyramidal side effects relative to dose required to block 5HT2A receptors in vivo) was 8, the “reversal of DOI-induced motor dysfunction” value [2] was “beneficially reverses DOI-induced motor dysfunction” and the “oral efficacy compared with intraperitoneal administration” value ([3]; 50 mg/kg oral vs 10 mg/kg i.p.) was “as efficacious as a 10 mg/kg dose of the same compounds administered intraperitoneally”. The “reversal of DOI-induced motor dysfunction, oral” value ([3]; oral gavage 50 mg/kg, 30 min prior to DOI) was “reversed DOI-induced motor dysfunction in rats”, the oral activity ([3]; rat, DOI test, 50 mg/kg oral) was “orally active” and the bioavailability [4] was at least 20%. For the same compound, the “selectivity preference for the 5HT2A receptor compared with the 5HT2C receptor” value [5] was 100 fold, the “IP3 % of Control” value ([6]; 10 μM test compound, triplicate, control without test compound) was 11% and the “profile in in vitro functional assays” value ([6]; in vitro functional assays) was “selective 5HT2A inverse agonist properties”.

In the case of `COc1cc(CC(C)N)c(OC)cc1I` (stereo not drawn) [DOI, 1-(2,5-dimethoxy-4-iodophenyl)-2-aminopropane], the “motor function effect of DOI alone” value [7] is listed as “produces motor dysfunction in rats as shown by a decrease in ambulation”.

For `C[C@]12N[C@H](Cc3ccccc31)c1ccccc12` [MK-801], the “effect of MK-801 alone on locomotor activity and stereotypy” value [8] is given as “induces significant increases in locomotor activity and stereotypy”.

With `CN1CCN(C2=Nc3cc(Cl)ccc3Nc3ccccc32)CC1` [clozapine, reference compound] the “attenuation of MK-801-induced hyperactivity (ambulations)” value [9] was “dose-dependently attenuated MK801-induced hyperactivity”.
